Laboratory results: publication PMC8983499 (Cancer Research, 2022)

Tests used:
Assay type in all cases: in vivo
[1] = Fluorescence imaging of Cy-peptide analogues; conditions: SHO mice, tail-vein injection 0.5 nmol, images 1 and 4 hours; in words
Nephrotoxicity study = conditions: BALB/cJ mice, intravenous, 3 days after drug administration, ELISA, n = 3/group
Toxicity profile = conditions: healthy BALB/cJ mice, intravenous weekly for 3 weeks, DM1 and DM1–Bdd 0.75 mg/kg of drug content, CIS 10 mg/kg

## Cyanine5.5 [free Cy]
[1]
  elimination and organ uptake by fluorescence imaging: mainly taken up by liver and/or other organs

## Nc1ccn([C@@H]2O[C@H](CO)[C@@H](O)C2(F)F)c(=O)n1 [GEM, gemcitabine]
Nephrotoxicity study
  KIM-1 and/or NGAL in urine: continued induction

## COc1cc2cc(c1Cl)N(C)C(=O)C[C@H](OC(=O)[C@H](C)N(C)C(=O)CCS)[C@]1(C)O[C@H]1[C@H](C)[C@@H]1C[C@@](O)(NC(=O)O1)[C@H](OC)/C=C/C=C(\C)C2 [DM1, N2'-deacetyl-N2'-(3-mercapto-1-oxopropyl)-maytansine]
Toxicity profile
  serum biochemical analysis for liver injury and renal function: induced hepatic and renal toxicity
Toxicity profile; n = 4/group
  hematology (blood cell counts and morphologic features): reticulocytosis without apparent anemia
Nephrotoxicity study
  KIM-1 and/or NGAL in urine: continued induction

## CO[C@@]12[C@H](COC(N)=O)C3=C(C(=O)C(C)=C(N)C3=O)N1C[C@@H]1N[C@@H]12 [MIT, mitomycin]
Nephrotoxicity study
  KIM-1 and/or NGAL in urine: continued induction
